How the values were obtained:
[1] = target: Human Axl (Homo sapiens (Human), UniProt P30530, Q764R); test: Human AXL kinase assay (33P radiometric, KinaseProfiler); format: biochemical; conditions: 10 μM ATP
Protocol: (§1) Kinase activity and compound inhibition were investigated using the ^33P-Phosphoryl transfer radiometric kinase assay, performed using the KinaseProfiler™ service of Eurofins Pharma Discovery Services UK Limited. Dose-response experiments were performed using nine compound concentrations in a 96-well microtiter plate. For each assay, all compounds were prepared to a 50× final assay concentration (50 μM) in 100% DMSO, then diluted in a half-log series, with the final top concentration at 1 μM. This working stock of the compound was added to the assay well as the first component in the reaction, followed by the remaining components as detailed in the following assay protocols below. The positive control wells (100% kinase activity) contain all components of the reaction including 2% DMSO (control for solvent effects), except the compound of interest. Blank wells contain all components of the reaction, with the reference inhibitor, staurosporine. This reference compound was used to abolish kinase activity and generated the 0% kinase activity base-line. IC50 values were calculated by nonlinear regression analysis using the sigmoidal dose-response (variable slope) curve fit on XLFit version 5.3 (ID Business Solutions).
Human Axl (residues H473-A894 with Q764R, 161 nM) was incubated with 8 mM MOPS pH 7.0, 0.2 mM EDTA, 250 μM KKSRGDYMTMQIG (SEQ ID NO. 43), 10 mM magnesium acetate and 10 μM [γ-33P-ATP]. The reaction was initiated by the addition of the Mg/ATP mix. After incubation for 40 minutes at room temperature, the reaction was stopped by the addition of phosphoric acid to a concentration of 0.5%. A reaction aliquot of 10 μL was then spotted onto a P30 filtermat and washed four times for 4 minutes in 0.425% phosphoric acid and once in methanol prior to drying and scintillation counting. Incorporated ^33P was measured using the Wallac Microbeta scintillation counter (Perkin Elmer).

[2] = target: T1, Met (Homo sapiens (Human), UniProt P08581); test: Human Met kinase assay (33P radiometric, KinaseProfiler); format: biochemical; conditions: 10 μM ATP, read-out: c-Met IC50
Protocol: as §1
Human Met (residues R974-S1390 with A1209G and V1290L, 3.4 nM) was incubated with 8 mM MOPS pH 7.0, 0.2 mM EDTA, 250 μM KKKGQEEEYVFIE (SEQ ID NO. 45), 1 mM sodium orthovanadate, 5 mM […], 10 mM magnesium acetate, and 10 μM [γ-33P-ATP]. The reaction was initiated by the addition of the Mg/ATP mix. After incubation for 40 minutes at room temperature, the reaction was stopped by the addition of phosphoric acid to a concentration of 0.5%. A reaction aliquot of 10 μL was then spotted onto a P30 filtermat and washed four times for 4 minutes in 0.425% phosphoric acid and once in methanol prior to drying and scintillation counting. Incorporated 33P was measured using the Wallac Microbeta scintillation counter (Perkin Elmer).

[3] = target: T2, Mer (Homo sapiens (Human), UniProt Q12866); test: Human Mer kinase assay (33P radiometric, KinaseProfiler); format: biochemical; conditions: 10 μM ATP
Protocol: as §1
Target sequence in this assay (Q12866 557-882): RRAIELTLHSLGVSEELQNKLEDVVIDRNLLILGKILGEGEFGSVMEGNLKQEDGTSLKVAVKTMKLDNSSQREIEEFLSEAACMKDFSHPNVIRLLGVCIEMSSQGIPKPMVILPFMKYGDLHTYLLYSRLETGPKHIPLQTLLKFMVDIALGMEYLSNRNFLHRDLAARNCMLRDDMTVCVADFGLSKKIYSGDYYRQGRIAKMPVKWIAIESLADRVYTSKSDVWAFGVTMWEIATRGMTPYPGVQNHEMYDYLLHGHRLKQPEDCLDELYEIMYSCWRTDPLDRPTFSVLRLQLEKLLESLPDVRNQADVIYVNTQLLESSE
Human Mer (residues R557-E882 with H628Q and R794A, 0.7 nM) was incubated with 8 mM MOPS pH 7.0, 0.2 mM EDTA, 30 mM NaCl, 250 μM GGMEDIYFEFMGGKKK (SEQ ID NO. 44), 10 mM magnesium acetate, and 10 μM [γ-^33P-ATP]. The reaction was initiated by the addition of the Mg/ATP mix. After incubation for 40 minutes at room temperature, the reaction was stopped by the addition of phosphoric acid to a concentration of 0.5%. A reaction aliquot of 10 μL was then spotted onto a P30 filtermat and washed four times for 4 minutes in 0.425% phosphoric acid and once in methanol prior to drying and scintillation counting. Incorporated ^33P was measured using the Wallac Microbeta scintillation counter (Perkin Elmer).

[4] = target: KDR (Homo sapiens (Human), UniProt P35968); test: KDR autophosphorylation ELISA in HUVEC cells; format: cell-based; conditions: cellular, VEGF165-stimulated, phospho-KDR ELISA
KDR, sequence (P35968 20-1356): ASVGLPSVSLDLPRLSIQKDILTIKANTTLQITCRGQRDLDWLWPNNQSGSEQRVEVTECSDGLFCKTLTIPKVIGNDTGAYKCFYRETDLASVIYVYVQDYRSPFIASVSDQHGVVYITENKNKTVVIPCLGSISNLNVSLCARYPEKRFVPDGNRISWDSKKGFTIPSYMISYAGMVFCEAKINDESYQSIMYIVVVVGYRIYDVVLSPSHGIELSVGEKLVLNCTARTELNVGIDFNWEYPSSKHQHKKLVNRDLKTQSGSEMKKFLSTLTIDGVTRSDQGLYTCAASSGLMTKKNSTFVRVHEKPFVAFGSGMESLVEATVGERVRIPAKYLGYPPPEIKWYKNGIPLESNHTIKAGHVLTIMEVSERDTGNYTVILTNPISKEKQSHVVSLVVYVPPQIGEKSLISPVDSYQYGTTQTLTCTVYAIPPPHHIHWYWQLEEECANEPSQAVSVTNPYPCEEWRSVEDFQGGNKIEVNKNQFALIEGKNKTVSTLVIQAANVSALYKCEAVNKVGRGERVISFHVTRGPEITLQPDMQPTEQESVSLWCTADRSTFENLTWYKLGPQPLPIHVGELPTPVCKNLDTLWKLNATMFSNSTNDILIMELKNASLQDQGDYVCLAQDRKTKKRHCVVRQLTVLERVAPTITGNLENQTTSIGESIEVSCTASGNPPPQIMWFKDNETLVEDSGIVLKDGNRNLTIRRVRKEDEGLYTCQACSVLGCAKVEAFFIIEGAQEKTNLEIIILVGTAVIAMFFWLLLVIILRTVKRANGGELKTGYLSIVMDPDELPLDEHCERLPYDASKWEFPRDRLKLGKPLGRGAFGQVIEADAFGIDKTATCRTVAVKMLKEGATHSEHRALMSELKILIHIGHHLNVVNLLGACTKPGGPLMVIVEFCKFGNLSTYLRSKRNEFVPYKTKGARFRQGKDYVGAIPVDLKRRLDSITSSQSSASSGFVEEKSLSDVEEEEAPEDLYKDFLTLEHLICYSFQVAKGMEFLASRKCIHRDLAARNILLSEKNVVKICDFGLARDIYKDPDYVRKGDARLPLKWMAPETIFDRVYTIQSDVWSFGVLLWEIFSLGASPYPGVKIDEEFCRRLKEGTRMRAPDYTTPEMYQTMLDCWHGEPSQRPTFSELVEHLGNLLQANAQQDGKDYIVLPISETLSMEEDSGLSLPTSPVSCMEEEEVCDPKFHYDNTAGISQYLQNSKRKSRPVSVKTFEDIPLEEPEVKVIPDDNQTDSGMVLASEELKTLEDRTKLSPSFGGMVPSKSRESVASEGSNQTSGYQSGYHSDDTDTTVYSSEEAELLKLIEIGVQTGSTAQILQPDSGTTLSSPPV
Method in brief: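 HUVEC, 24 h serum-free starvation; cpd 8-pt dilution, 0.3% DMSO final, 1 h; VEGF165 100 ng/mL, 5 min; cold lysis; phospho-KDR ELISA; IC50, 4PL.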

[5] = target: AXL (Homo sapiens (Human), UniProt P30530); test: AXL autophosphorylation ELISA in A-172 cells; format: cell-based; conditions: cellular, Gas6-stimulated, phospho-AXL ELISA
AXL, sequence (P30530 26-894): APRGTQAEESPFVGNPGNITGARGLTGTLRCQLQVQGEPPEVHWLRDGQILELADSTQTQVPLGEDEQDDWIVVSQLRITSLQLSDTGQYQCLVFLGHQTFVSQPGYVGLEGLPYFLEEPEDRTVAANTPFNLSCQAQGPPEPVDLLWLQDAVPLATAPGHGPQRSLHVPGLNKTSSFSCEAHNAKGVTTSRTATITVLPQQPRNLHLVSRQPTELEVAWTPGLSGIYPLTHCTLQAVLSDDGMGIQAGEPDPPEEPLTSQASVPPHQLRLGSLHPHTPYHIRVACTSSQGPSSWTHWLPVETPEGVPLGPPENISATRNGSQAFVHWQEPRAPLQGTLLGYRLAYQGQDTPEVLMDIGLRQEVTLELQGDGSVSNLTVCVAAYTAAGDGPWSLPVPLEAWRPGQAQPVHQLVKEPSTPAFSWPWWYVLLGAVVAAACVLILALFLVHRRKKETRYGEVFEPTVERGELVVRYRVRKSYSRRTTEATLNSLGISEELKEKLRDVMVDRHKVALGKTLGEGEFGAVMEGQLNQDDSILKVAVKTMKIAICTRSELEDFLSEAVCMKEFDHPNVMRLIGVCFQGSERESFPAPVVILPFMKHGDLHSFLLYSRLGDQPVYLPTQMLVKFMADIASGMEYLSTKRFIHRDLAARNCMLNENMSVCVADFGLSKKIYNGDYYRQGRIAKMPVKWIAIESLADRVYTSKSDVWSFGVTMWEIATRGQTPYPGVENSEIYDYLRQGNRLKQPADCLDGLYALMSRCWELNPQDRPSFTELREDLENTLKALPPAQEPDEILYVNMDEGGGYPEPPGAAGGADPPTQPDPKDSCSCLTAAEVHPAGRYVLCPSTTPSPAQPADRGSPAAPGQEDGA
Method in brief: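 A-172 glioblastoma cells, serum-starved 24 h, took compounds for 1 h (8-point curve, 0.3% DMSO) before 15 min stimulation with 1 μg/mL recombinant human Gas6. Lysate phospho-AXL measured by ELISA against a phospho-AXL standard, normalized to DMSO (100%) and reference inhibitor (0%); IC50 from 4-parameter logistic fit.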

[6] = target: T2, Mer; test: Mer autophosphorylation ELISA in transient transfected 293A cells; format: cell-based; conditions: cellular, MERTK-transfected 293A cells, phospho-Mer ELISA
Protocol: 293A cells (Thermo Fisher #R70507) were seeded at 1.5×10^6 cells/well onto 100 mm dish (Greiner #664169), in DMEM (Thermo Fisher #11995-040) containing 10% FBS (Thermo Fisher #26140-079), 1% MEM NEAA (Thermo Fisher #11140-050), 1% GlutaMax (Thermo Fisher #35050-061), and 1% Penicillin Streptomycin (Thermo Fisher #15140-122). 293A cells were incubated at 37° C., 5% CO2 for 24 h and then transfected with 6 μg MERTK DNA (Genecopoeia #EX-Z8208-M02) using TransIT LT1 transfection reagent (Mirus-Bio #MIR2305). After 24 h incubation, the transfected 293A cells were seeded at 1×10^5 cells/well onto 96-well plates (Corning #3904) in DMEM growth medium overnight. Test compounds were serially diluted to produce an 8-point dose curve in fresh serum-free medium to a final concentration of 0.3% DMSO (vehicle) and added to the cells and incubated for 1 h. Cells were then immediately lysed with 150 μL of cold 1× lysis buffer [20 mM Tris, 137 mM sodium chloride, 2 mM EDTA, 10% glycerol, 1% NP-40 alternative, 1 mM activated sodium orthovanadate, 1 mM PefaBloc SC (Sigma-Aldrich #11429868001), protease/phosphatase inhibitor tablet (Thermo Fisher #A32959)]. Lysates were clarified by centrifugation and 50 μL/well added into the human phospho-Mer DuoSet IC ELISA (R&D Systems #DYC2579-2). Assay was performed according to manufacturer's instructions and sample phospho-Mer concentrations were extrapolated using human phospho-Mer control (R&D Systems #841793) as a standard. Positive control wells (100% activity) contained DMSO-treated cell lysates. Negative control wells (0% activity) contained reference inhibitor-treated cell lysates. IC50 values were calculated by nonlinear regression analysis using a 4-parameter logistic curve fit in ActivityBase XE (IDBS).
Target sequence in this assay (Q12866 21-999): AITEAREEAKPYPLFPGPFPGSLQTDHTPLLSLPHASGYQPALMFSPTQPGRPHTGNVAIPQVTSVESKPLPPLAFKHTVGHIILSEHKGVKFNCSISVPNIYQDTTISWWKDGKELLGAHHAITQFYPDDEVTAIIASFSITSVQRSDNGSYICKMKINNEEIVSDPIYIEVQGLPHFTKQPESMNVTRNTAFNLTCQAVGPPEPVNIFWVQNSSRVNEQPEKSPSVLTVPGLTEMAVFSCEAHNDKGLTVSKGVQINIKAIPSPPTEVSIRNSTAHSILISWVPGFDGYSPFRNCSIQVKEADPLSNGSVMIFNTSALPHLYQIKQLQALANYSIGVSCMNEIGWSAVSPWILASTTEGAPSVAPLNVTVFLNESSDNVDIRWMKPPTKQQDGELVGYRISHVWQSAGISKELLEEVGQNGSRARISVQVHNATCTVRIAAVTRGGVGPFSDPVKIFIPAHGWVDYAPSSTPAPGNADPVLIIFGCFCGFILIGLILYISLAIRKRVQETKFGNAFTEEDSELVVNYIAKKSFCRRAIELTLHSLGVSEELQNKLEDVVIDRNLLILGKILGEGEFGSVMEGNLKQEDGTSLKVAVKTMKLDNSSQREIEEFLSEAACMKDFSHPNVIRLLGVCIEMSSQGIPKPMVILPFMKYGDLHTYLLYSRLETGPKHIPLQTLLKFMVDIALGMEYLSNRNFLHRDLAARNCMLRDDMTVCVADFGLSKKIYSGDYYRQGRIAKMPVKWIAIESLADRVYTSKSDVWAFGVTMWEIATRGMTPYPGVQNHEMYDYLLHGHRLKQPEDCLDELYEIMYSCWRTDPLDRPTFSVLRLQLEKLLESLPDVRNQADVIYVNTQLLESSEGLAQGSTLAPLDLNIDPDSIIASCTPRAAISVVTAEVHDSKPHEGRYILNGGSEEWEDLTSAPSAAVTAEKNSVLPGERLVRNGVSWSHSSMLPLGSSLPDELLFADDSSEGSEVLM

[7] = target: T1, Met; test: Met autophosphorylation ELISA in PC-3 cells; format: cell-based; conditions: cellular, HGF-stimulated, phospho-Met ELISA, read-out: c-Met IC50
Method in brief: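 PC-3 cells serum-starved 3 h were treated 1 h with an 8-point compound series (0.3% DMSO), then stimulated 10 min with 100 ng/mL human HGF. Phospho-Met (panTyr) in lysates was measured by sandwich ELISA against DMSO (100%) and reference-inhibitor (0%) controls, and IC50 came from a 4-parameter logistic fit.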
Target sequence in this assay (P08581 25-1390): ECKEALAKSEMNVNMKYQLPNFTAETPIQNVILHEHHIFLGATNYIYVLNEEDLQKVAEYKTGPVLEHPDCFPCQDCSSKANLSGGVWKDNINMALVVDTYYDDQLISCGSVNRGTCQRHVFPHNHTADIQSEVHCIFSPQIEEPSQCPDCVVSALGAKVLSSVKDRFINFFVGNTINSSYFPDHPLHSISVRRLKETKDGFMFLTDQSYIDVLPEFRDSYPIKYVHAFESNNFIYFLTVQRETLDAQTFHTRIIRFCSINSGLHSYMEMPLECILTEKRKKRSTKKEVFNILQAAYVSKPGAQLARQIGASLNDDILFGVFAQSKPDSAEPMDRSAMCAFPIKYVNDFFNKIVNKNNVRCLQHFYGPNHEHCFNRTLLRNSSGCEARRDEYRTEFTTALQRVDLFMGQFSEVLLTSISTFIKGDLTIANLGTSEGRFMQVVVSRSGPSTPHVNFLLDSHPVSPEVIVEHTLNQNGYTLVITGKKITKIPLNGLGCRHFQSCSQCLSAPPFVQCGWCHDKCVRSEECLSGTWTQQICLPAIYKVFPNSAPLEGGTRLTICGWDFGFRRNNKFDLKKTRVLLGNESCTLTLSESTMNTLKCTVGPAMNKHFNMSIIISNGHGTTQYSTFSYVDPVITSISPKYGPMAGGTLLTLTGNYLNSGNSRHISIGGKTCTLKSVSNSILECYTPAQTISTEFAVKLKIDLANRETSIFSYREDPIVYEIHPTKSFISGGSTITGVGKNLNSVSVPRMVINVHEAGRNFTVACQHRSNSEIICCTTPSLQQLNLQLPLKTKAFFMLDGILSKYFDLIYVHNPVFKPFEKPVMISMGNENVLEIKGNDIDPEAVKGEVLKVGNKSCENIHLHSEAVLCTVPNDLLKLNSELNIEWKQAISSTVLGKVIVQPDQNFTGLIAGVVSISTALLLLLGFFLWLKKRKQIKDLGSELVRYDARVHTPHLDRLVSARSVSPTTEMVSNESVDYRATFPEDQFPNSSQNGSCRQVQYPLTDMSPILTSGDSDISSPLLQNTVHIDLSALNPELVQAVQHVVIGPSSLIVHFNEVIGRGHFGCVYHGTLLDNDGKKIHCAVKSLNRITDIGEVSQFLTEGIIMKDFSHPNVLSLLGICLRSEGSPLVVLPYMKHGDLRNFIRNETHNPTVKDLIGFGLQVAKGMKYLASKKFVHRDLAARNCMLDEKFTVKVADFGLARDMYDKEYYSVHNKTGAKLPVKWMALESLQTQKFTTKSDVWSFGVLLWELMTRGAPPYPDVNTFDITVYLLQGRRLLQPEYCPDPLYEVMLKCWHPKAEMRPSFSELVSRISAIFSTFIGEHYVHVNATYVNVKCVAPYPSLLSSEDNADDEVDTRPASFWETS

| IC50 [1] [nM] | IC50 [2] [nM] | IC50 [3] [nM] | IC50 [4] [nM] | IC50 [5] [nM] | IC50 [6] [nM] | IC50 [7] [nM] | Structure (SMILES) |
| --- | --- | --- | --- | --- | --- | --- | --- |
| – | – | – | > 300 | 10 to 100 | > 300 | > 300 | COc1cc2nccc(Oc3ccc(NC(=O)C4(C(=O)Nc5ccc(F)cc5)CC4)c(C)n3)c2nc1OC [Compound 87, 1-N′-[6-[(6,7-Dimethoxy-1,5-naphthyridin-4-yl)oxy]-2-methylpyridin-3-yl]-1-N-(4-fluorophenyl)cyclopropane-1,1-dicarboxamide] |
| – | – | – | > 300 | 10 to 100 | 10 to 100 | 100 to 300 | COCCOc1cc2nccc(Oc3ncc(NC(=O)C4(C(=O)Nc5ccc(F)cc5)CC4)cc3F)c2nc1OC [Compound 116, 1-N′-[5-Fluoro-6-[[6-methoxy-7-(2-methoxyethoxy)-1,5-naphthyridin-4-yl]oxy]pyridin-3-yl]-1-N-(4-fluorophenyl)cyclopropane-1,1-dicarboxamide] |
| – | – | – | > 300 | 10 to 100 | 10 to 100 | 10 to 100 | COc1nc2c(Oc3ncc(NC(=O)C4(C(=O)Nc5ccc(F)cc5)CC4)cc3F)ccnc2cc1OCCCN1CCOCC1 [Compound 122, 1-N′-[5-Fluoro-6-[[6-methoxy-7-(3-morpholin-4-ylpropoxy)-1,5-naphthyridin-4-yl]oxy]pyridin-3-yl]-1-N-(4-fluorophenyl)cyclopropane-1,1-dicarboxamide] |
| – | – | – | > 300 | 10 to 100 | 10 to 100 | 10 to 100 | COc1nc2c(Oc3ncc(NC(=O)C4(C(=O)Nc5ccc(F)cc5)CC4)cc3F)ccnc2cc1OCCN1CCOCC1 [Compound 123, 1-N′-[5-Fluoro-6-[[6-methoxy-7-(2-morpholin-4-ylethoxy)-1,5-naphthyridin-4-yl]oxy]pyridin-3-yl]-1-N-(4-fluorophenyl)cyclopropane-1,1-dicarboxamide] |
| – | – | – | > 300 | 100 to 300 | 100 to 300 | 100 to 300 | COc1nc2c(Oc3ncc(NC(=O)C4(C(=O)Nc5ccc(F)cc5)CC4)cc3F)ccnc2cc1OCC(N)=O [Compound 124, 1-N′-[6-[[7-(2-Amino-2-oxoethoxy)-6-methoxy-1,5-naphthyridin-4-yl]oxy]-5-fluoropyridin-3-yl]-1-N-(4-fluorophenyl)cyclopropane-1,1-dicarboxamide] |
| – | – | – | > 300 | 10 to 100 | 10 to 100 | 10 to 100 | COc1nc2c(Oc3ncc(NC(=O)C4(C(=O)Nc5ccc(F)cc5)CC4)cc3F)ccnc2cc1OCCCN(C)C [Compound 125, 1-N′-[6-[[7-[3-(Dimethylamino)propoxy]-6-methoxy-1,5-naphthyridin-4-yl]oxy]-5-fluoropyridin-3-yl]-1-N-(4-fluorophenyl)cyclopropane-1,1-dicarboxamide] |

Continued, compound first:

| Structure (SMILES) | IC50 [1] [nM] | IC50 [2] [nM] | IC50 [3] [nM] | IC50 [4] [nM] | IC50 [5] [nM] | IC50 [6] [nM] | IC50 [7] [nM] |
| --- | --- | --- | --- | --- | --- | --- | --- |
| COc1cc2nccc(Oc3ccc(NC(=O)C4(C(=O)Nc5ccc(F)cc5)CC4)cn3)c2cc1C(=O)O [Compound 13, 4-[5-[[1-[(4-Fluorophenyl)carbamoyl]cyclopropanecarbonyl]-amino]pyridin-2-yl]oxy-7-methoxyquinoline-6-carboxylic acid] | 100 to 1000 | 100 to 1000 | 100 to 1000 | – | – | – | – |
| COc1cc2nccc(Oc3ccc(NC(=O)C4(C(=O)Nc5ccc(F)cc5)CC4)c(OC)n3)c2nc1OC [Compound 86, 1-N′-[6-[(6,7-Dimethoxy-1,5-naphthyridin-4-yl)oxy]-2-methoxypyridin-3-yl]-1-N-(4-fluorophenyl)cyclopropane-1,1-dicarboxamide] | – | – | – | > 300 | 10 to 100 | 10 to 100 | 100 to 300 |
| COc1cc2nccc(Oc3nc(F)c(NC(=O)C4(C(=O)Nc5ccc(F)cc5)CC4)cc3F)c2nc1OC [Compound 96, 1-N′-[6-[(6,7-Dimethoxy-1,5-naphthyridin-4-yl)oxy]-2,5-difluoropyridin-3-yl]-1-N-(4-fluorophenyl)cyclopropane-1,1-dicarboxamide] | – | – | – | > 300 | ≤ 10 | 10 to 100 | 10 to 100 |
| COc1ccc(COc2cc3nccc(Oc4ncc(NC(=O)C5(C(=O)Nc6ccc(F)cc6)CC5)cc4F)c3nc2OC)cc1 [Compound 120, 1-N′-[5-Fluoro-6-[[6-methoxy-7-[(4-methoxyphenyl)methoxy]-1,5-naphthyridin-4-yl]oxy]pyridin-3-yl]-1-N-(4-fluorophenyl)cyclopropane-1,1-dicarboxamide] | – | – | – | > 300 | 100 to 300 | > 300 | 100 to 300 |
| COc1nc2c(Oc3ncc(NC(=O)C4(C(=O)Nc5ccc(F)cc5)CC4)cc3F)ccnc2cc1OCC(O)CO (centres unmarked) [Compound 127, 1-N′-[6-[[7-(2,3-Dihydroxypropoxy)-6-methoxy-1,5-naphthyridin-4-yl]oxy]-5-fluoropyridin-3-yl]-1-N-(4-fluorophenyl)cyclopropane-1,1-dicarboxamide] | – | – | – | > 300 | 10 to 100 | 100 to 300 | 10 to 100 |
| COc1nc2c(Oc3ccc(NC(=O)C4(C(=O)Nc5ccc(F)cc5)CC4)cn3)ncnc2cc1OCCCN1CCOCC1 [Compound 155, 1-N-(4-Fluorophenyl)-1-N′-[6-[6-methoxy-7-(3-morpholin-4-ylpropoxy)pyrido[3,2-d]pyrimidin-4-yl]oxypyridin-3-yl]cyclopropane-1,1-dicarboxamide] | – | – | – | > 300 | 10 to 100 | 100 to 300 | 100 to 300 |

— patent publication US11673897B2, “Compounds for the treatment of kinase-dependent disorders” (Exelixis, Inc., priority 2018, dated 2023)
